Results reported in PMC6656724 (Communications Biology, 2019).
≈ marks a conversion by molar mass, not a printed value. Where two headings read alike, the source gives them in different places.

Tests used:
[1] = Mouse brain penetration study; assay type: in vivo, female C57BL6 mice
Experimental: Inhibitor 1 (and prodrugs 1a, 1b, 1c and 1d) was dosed as a bolus solution intravenously at 1 mg free base/kg (dose volume: 5 mL/kg; dose vehicle: 5% DMSO; 95% saline (inhibitor 1) or 5% DMSO; 40% PEG400; 55% MilliQ H2O (prodrugs 1a, 1b, 1c and 1d)) to female C57BL6 mice (n = 6). At 5 min and 60 min following intravenous bolus injection of test compound, mice (n = 3/timepoint) were placed under terminal anaesthesia with isofluorane. A blood sample was taken by cardiac puncture, the […] decapitated and the brain removed. Brain weight was noted and each brain homogenised with two volumes of methanol (2 mL/g brain). Each blood sample was diluted with distilled water (1:10). Diluted blood and the brain homogenates were then stored frozen until preparation and analysis by UPLC-MS/MS. For each mouse at each timepoint for 1, the concentration in brain (ng/g) was divided by the concentration in blood (ng/mL) to give a brain:blood ratio. The mean value obtained was quoted. For prodrugs 1a to 1d, only the concentration of 1 in blood (ng/mL) and brain (ng/g) was reported.
A rapid and sensitive ultra-performance chromatography/tandem mass spectrometry (UPLC-MS/MS) method was developed and validated for the determination of inhibitor 1 and prodrug 1b (rat only). Chromatographic analysis was conducted on a Waters Acquity™ UPLC system. Chromatographic separation was performed with an Acquity™ UPLC BEH C18 column (50 × 2.1 mm, 1.7 µm, 130Å; Waters Corp.) maintained at 40 °C in a column oven. The mobile phase consisted of water with 0.01% formic acid and ACN with 0.01 % formic acid and it was delivered at a flow rate of 0.6 mL/min under gradient eluent conditions within an analysis cycle time of 3 min. The mass detection was conducted on a Waters Xevo™ TQs mass spectrometer equipped with a ScanWave™ technology. Quantitation of the analyte was performed in electrospray positive ionisation mode (ESI^+) using multiple reaction monitoring. The optimised fragmentation transition was m/z = 270.17 → 196.19 (mouse) or m/z = 270.17 → 223.76 (rat) for inhibitor 1 and m/z = 297.83 → 195.74 for prodrug 1b (rat).
Sample extraction for blood and brain homogenate was by protein precipitation (1:3 or 1:6) using ACN containing suitable internal standard. Extracts were vortexed followed by centrifugation (2800 rpm for 10 min). An aliquot of each supernatant was then diluted two-fold in distilled water ready for analysis by UPLC-MS/MS.
The weighted 1/x^2 calibration line was linear in the dynamic range of 1–5000 ng/mL for inhibitor 1 and 1–1000 ng/mL for prodrug 1b with a correlation coefficient (r^2) > 0.99 (inhibitor 1) or 0.98 (prodrug 1b). The quality control samples (QC) were prepared by using the same spiking scheme as the calibration samples and up to four different target concentration brain levels: 2 ng/mL (LQC), 40 ng/mL (MQC), 100 ng/mL (HQC) and 2000 ng/mL. Data collection, peak integration and calculations were performed using MassLynx software, version 2.1.

[2] = Kinetic solubility in PBS, pH 7.4 (2% DMSO); assay type: physicochemical; conditions: for solubility at 2 h: PBS with 2% DMSO, pH 7.4, aqueous buffer, kinetic from dmso stock, PBS, pH 7.4 (2% DMSO)
in vitro = in vitro ADME, canine; conditions: dog, MDCK
Experimental: (§1) internal standard at each timepoint. […]
(§2) including an analytical internal standard.
(§3) Apparent permeability (Papp) values were determined from the relationship: […]
(§4) Where V is the volume of each Transwell compartment (apical 125 µL, basolateral 600 µL), and concentrations are the relative MS responses for compound (normalized to internal standard) in the donor chamber before incubation and acceptor chamber at the end of the incubation. Area = area of cells exposed for drug transfer (0.33 cm 2).
(§5) Efflux ratios (Papp B>A / Papp A>B) were calculated for each compound from the […]
(§6) MDR1-MDCK cell line has been engineered to overexpress the efflux transporter, MDR1 (P-glycoprotein), and a finding of good permeability B>A, but poor […]
(§7) order to confirm the involvement of MDR1 in any efflux seen, an “ef fective efflux ratio” (EER) was calculated by comparing compound efflux ratios (ER) in the two cell types, i.e. EER = ER (MDR1-MDCK)/ ER (wild-type MDCK). This ratio illustrates the effect of the over-expressed MDR1 normalised for the background movement of compound through the wild-type cells.
(§8) Lucifer Yellow (LY) was added to the apical buffer in all wells to assess viability of the cell layer. As LY cannot freely permeate lipophilic barriers, a high degree of LY […]
(§9) validity of other wells on the plate.
(§10) Compound recovery from the wells was determined from MS responses (normalized to internal standard) in donor and acceptor chambers at the end of incubation compared to response in the donor chamber pre-incubation.

MDR1 (P-glycoprotein) = experiment: in vitro; assay type: in vitro ADME, canine; conditions: dog
Experimental: as §1, §2, §3, §4, §5, §6, §7, §8, §9, §10

Cc1cc2c(c(C)c1Cl)N(CC(=O)O)C(=O)CO2 [compound 1, (6-chloro-5,7-dimethyl-3-oxo-2,3-dihydro-4H-1,4-benzoxazin-4-yl) acetic acid]
concentration at 5 min ([1]; C57BL6, mouse, whole blood, iv, female C57BL/6 mice, 1 mg/kg i.v. bolus, 5 min, read-out: Level in the blood (mean)): 3780 ± 639 ng/mL
Brain penetrance (in words) ([1]; mouse, 1 mg/kg i.v.): Minimal brain penetrance
In brain ([1]; mouse, 1 mg/kg i.v., 60 min, single mice, analyte inhibitor 1 (also after prodrugs) or 1h): ≤ LLoQ
Kinetic solubility (in words) [2]: good
solubility at 2 h ([2]; read-out: Solubility Mean): 193 µM (≈ 52 µg/mL)
solubility at 2 h ([2]; read-out: Solubility n=1): 191 µM (≈ 51.5 µg/mL)
solubility at 2 h ([2]; read-out: Solubility n=2): 194 µM (≈ 52.3 µg/mL)
Papp A→B at 1 h, 10 µM (in vitro; pH 7.4, Papp A>B n=1, wild type MDCK): 16 ×10⁻⁶ cm/s
Papp A→B at 1 h, 10 µM (in vitro; pH 7.4, Papp A>B n=2, wild type MDCK): 11 ×10⁻⁶ cm/s
Papp B→A at 1 h, 10 µM (in vitro; pH 7.4, Papp B>A n=1, wild type MDCK): 2.6 ×10⁻⁶ cm/s
Papp B→A at 1 h, 10 µM (in vitro; pH 7.4, Papp B>A n=2, wild type MDCK): 2.3 ×10⁻⁶ cm/s
Papp A→B at 1 h, 10 µM (in vitro; pH 7.4, wild type MDCK, read-out: Papp A>B Mean): 13.5 ×10⁻⁶ cm/s
Papp B→A at 1 h, 10 µM (in vitro; pH 7.4, wild type MDCK, read-out: Papp B>A Mean): 2.45 ×10⁻⁶ cm/s
recovery at 1 h, 10 µM (in vitro; pH 7.4, wild type MDCK, read-out: Recovery A>B Mean): 93.5%
recovery at 1 h, 10 µM (in vitro; pH 7.4, wild type MDCK, read-out: Recovery A>B n=1): 100%
recovery at 1 h, 10 µM (in vitro; pH 7.4, wild type MDCK, read-out: Recovery A>B n=2): 87%
recovery at 1 h, 10 µM (in vitro; pH 7.4, wild type MDCK, read-out: Recovery B>A Mean): 108%
recovery at 1 h, 10 µM (in vitro; pH 7.4, wild type MDCK, read-out: Recovery B>A n=1): 108%
recovery at 1 h, 10 µM (in vitro; pH 7.4, wild type MDCK, read-out: Recovery B>A n=2): 109%
Papp A→B at 1 h, 10 µM (MDR1 (P-glycoprotein); MDCK-MDR1, pH 7.4, MDR1 MDCK, read-out: Papp A>B Mean): 16 ×10⁻⁶ cm/s
Papp B→A at 1 h, 10 µM (MDR1 (P-glycoprotein); MDCK-MDR1, pH 7.4, MDR1 MDCK, read-out: Papp B>A Mean): 2.1 ×10⁻⁶ cm/s
recovery at 1 h, 10 µM (MDR1 (P-glycoprotein); MDCK-MDR1, pH 7.4, MDR1 MDCK, read-out: Recovery A>B Mean): 99%
recovery at 1 h, 10 µM (MDR1 (P-glycoprotein); MDCK-MDR1, pH 7.4, MDR1 MDCK, read-out: Recovery A>B n=1): 107%
recovery at 1 h, 10 µM (MDR1 (P-glycoprotein); MDCK-MDR1, pH 7.4, MDR1 MDCK, read-out: Recovery A>B n=2): 91%
recovery at 1 h, 10 µM (MDR1 (P-glycoprotein); MDCK-MDR1, pH 7.4, MDR1 MDCK, read-out: Recovery B>A Mean): 84%
recovery at 1 h, 10 µM (MDR1 (P-glycoprotein); MDCK-MDR1, pH 7.4, MDR1 MDCK, read-out: Recovery B>A n=1): 62%
recovery at 1 h, 10 µM (MDR1 (P-glycoprotein); MDCK-MDR1, pH 7.4, MDR1 MDCK, read-out: Recovery B>A n=2): 106%
Papp A→B at 1 h, 10 µM (MDR1 (P-glycoprotein); MDCK-MDR1, pH 7.4, Papp A>B n=1, MDR1 MDCK): 18 ×10⁻⁶ cm/s
Papp A→B at 1 h, 10 µM (MDR1 (P-glycoprotein); MDCK-MDR1, pH 7.4, Papp A>B n=2, MDR1 MDCK): 14 ×10⁻⁶ cm/s
Papp B→A at 1 h, 10 µM (MDR1 (P-glycoprotein); MDCK-MDR1, pH 7.4, Papp B>A n=1, MDR1 MDCK): 1.8 ×10⁻⁶ cm/s
Papp B→A at 1 h, 10 µM (MDR1 (P-glycoprotein); MDCK-MDR1, pH 7.4, Papp B>A n=2, MDR1 MDCK): 2.4 ×10⁻⁶ cm/s
